Experimental data: ChEMBL document CHEMBL3596167, “Branched -d-mannopyranosides: a new class of potent FimH antagonists” (Medchemcomm, 2014)
Activity calls are given as the source filed them. The rule behind the calls is not given here.

Key:
[1] = biological target: T1, Type 1 fimbrin D-mannose specific adhesin (Escherichia coli K-12, UniProt P08191); assay: Displacement of TM-PAA polymer from Escherichia coli FimH-CRD-Th-6-His expressed in Escherichia coli HM125 by competitive binding assay
[2] = biological target: Type 1 fimbrin D-mannose specific adhesin (Escherichia coli K-12) (UniProt P08191); assay: Displacement of TM-PAA polymer from Escherichia coli FimH-CRD-Th-6-His expressed in Escherichia coli HM125 by competitive binding assay relative to heptyl alpha-D-mannopyranoside
[3] = system: HepG2; assay: Cytotoxicity against human HepG2 cells at 1 to 10 uM after 24 hrs by CellTiter 96 aqueous one solution cell proliferation assay; type: cell-based; conditions: hepg2, 24 h
[4] = Solubility of the compound in DMSO at 10 uM; type: physicochemical
[5] = biological target: Type 1 fimbrin D-mannose specific adhesin (Escherichia coli K-12) (UniProt P08191); assay: Displacement of TM-PAA polymer from Escherichia coli FimH-CRD-Th-6-His expressed in Escherichia coli HM125 at <1 uM by competitive binding assay
[6] = biological target: T1, Type 1 fimbrin D-mannose specific adhesin; assay: Binding affinity to Escherichia coli FimH
[7] = biological target: Type 1 fimbrin D-mannose specific adhesin (Escherichia coli K-12) (UniProt P08191); assay: Inhibition of Escherichia coli FimH relative to methyl alpha-D-mannopyranoside
[8] = biological target: Type 1 fimbrin D-mannose specific adhesin (Escherichia coli K-12) (UniProt P08191); assay: Inhibition of Escherichia coli FimH relative to heptyl alpha-D-mannopyranoside

Type 1 fimbrin D-mannose specific adhesin (Escherichia coli K-12), sequence (P08191 whole entry): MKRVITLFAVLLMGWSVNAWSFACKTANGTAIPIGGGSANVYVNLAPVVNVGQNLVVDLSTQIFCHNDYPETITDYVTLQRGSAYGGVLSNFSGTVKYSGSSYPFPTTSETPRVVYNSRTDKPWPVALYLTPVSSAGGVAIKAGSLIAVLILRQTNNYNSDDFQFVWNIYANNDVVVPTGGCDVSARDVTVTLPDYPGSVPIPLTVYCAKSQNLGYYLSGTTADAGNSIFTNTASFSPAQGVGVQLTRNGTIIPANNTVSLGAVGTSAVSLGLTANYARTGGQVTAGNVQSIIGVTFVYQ
T1 sequence (P08191 whole entry): as above

| Compound | IC50 [1] [nM] | Activity [3] | further results |
| --- | --- | --- | --- |
| O=[N+]([O-])c1ccc(OCC(CO[C@H]2O[C@H](CO)[C@@H](O)[C@H](O)[C@@H]2O)Oc2ccc([N+](=O)[O-])cc2)cc1 (some centres not stated) | – | Non-toxic | – |
| COc1ccc(OCC(COc2ccc(OC)cc2)O[C@H]2O[C@H](CO)[C@@H](O)[C@H](O)[C@@H]2O)cc1 | – | Non-toxic | inhibition [5]: inactive |
| OC[C@H]1O[C@H](OCC(COc2ccc3ccccc3c2)Oc2ccc3ccccc3c2)[C@@H](O)[C@@H](O)[C@@H]1O (some centres not stated) | – | Non-toxic | inhibition [5]: inactive |
| OC[C@H]1OC(O)[C@@H](O)[C@@H](O)[C@@H]1O (stereo partly drawn) [D-MANNOSE] | – | – | Kd [6]: 2300 nM |
| O=C(Cc1ccc([N+](=O)[O-])cc1)NCC(CNC(=O)Cc1ccc([N+](=O)[O-])cc1)O[C@H]1O[C@H](CO)[C@@H](O)[C@H](O)[C@@H]1O | – | – | inhibition [5]: inactive |
| O=[N+]([O-])c1ccc(CCO[C@H]2O[C@H](CO)[C@@H](O)[C@H](O)[C@@H]2O)cc1 | – | – | Ratio [7]: 85 |
| OC[C@H]1O[C@H](OC(COc2ccccc2)COc2ccccc2)[C@@H](O)[C@@H](O)[C@@H]1O | – | Non-toxic | – |
| O=[N+]([O-])c1ccc(O[C@H]2O[C@H](CO)[C@@H](O)[C@H](O)[C@@H]2O)c(Cl)c1 | – | – | Ratio [7]: 717 |
| O=C(Cc1ccccc1)NCC(CNC(=O)Cc1ccccc1)O[C@H]1O[C@H](CO)[C@@H](O)[C@H](O)[C@@H]1O | – | – | inhibition [5]: inactive |
| OC[C@H]1O[C@H](OC(COc2cccc3ccccc23)COc2cccc3ccccc23)[C@@H](O)[C@@H](O)[C@@H]1O | – | Non-toxic | – |
| OCC#Cc1ccc(O[C@H]2O[C@H](CO)[C@@H](O)[C@H](O)[C@@H]2O)cc1 | – | – | Ratio [8]: 7.7; Kd [6]: 0.65 nM; Ratio [7]: 3380 |
| CCCCCCCO[C@H]1O[C@H](CO)[C@@H](O)[C@H](O)[C@@H]1O | 58.9 | – | – |
| O=C(NCC(CNC(=O)c1ccc[nH]1)O[C@H]1O[C@H](CO)[C@@H](O)[C@H](O)[C@@H]1O)c1ccc[nH]1 | 607 | – | – |
| CCOc1c(Nc2ccc(O[C@H]3O[C@H](CO)[C@@H](O)[C@H](O)[C@@H]3O)c(Cl)c2)c(=O)c1=O | – | – | Ratio [7]: 6900 |
| N#Cc1ccc(C(=O)NCC(CNC(=O)c2ccc(C#N)cc2)O[C@H]2O[C@H](CO)[C@@H](O)[C@H](O)[C@@H]2O)cc1 | 978 | – | – |
| OC[C@H]1O[C@H](OCC(COc2cccc3ccccc23)Oc2cccc3ccccc23)[C@@H](O)[C@@H](O)[C@@H]1O (some centres not stated) | – | Non-toxic | inhibition [5]: inactive |
| OC[C@H]1O[C@H](OC(COc2ccc3ccccc3c2)COc2ccc3ccccc3c2)[C@@H](O)[C@@H](O)[C@@H]1O | – | Non-toxic | inhibition [5]: inactive |

Now from value to compound, other results behind:

| IC50 [1] [nM] | Compound | Activity [3] | further results |
| --- | --- | --- | --- |
| 158 | COc1ccc2ccc(OCC(COc3ccc4ccc(C(=O)O)cc4c3)O[C@H]3O[C@H](CO)[C@@H](O)[C@H](O)[C@@H]3O)cc2c1 (some centres not stated) | Non-toxic | Ratio [2]: 0.37; solubility [4]: soluble |
| 746 | CCOCC(COc1ccc2ccccc2c1)O[C@H]1O[C@H](CO)[C@@H](O)[C@H](O)[C@@H]1O (some centres not stated) | Non-toxic | Ratio [2]: 0.08 |
| 208 | COc1ccc(OC(COc2ccc(O)cc2)CO[C@H]2O[C@H](CO)[C@@H](O)[C@H](O)[C@@H]2O)cc1 (some centres not stated) | Non-toxic | Ratio [2]: 0.28 |
| 593 | COc1ccc2ccc(OCC(COc3ccc4ccc(OC)cc4c3)O[C@H]3O[C@H](CO)[C@@H](O)[C@H](O)[C@@H]3O)cc2c1 | Non-toxic | – |
| 232 | O=C(O)Cc1ccc(OCC(COc2cccc3ccccc23)O[C@H]2O[C@H](CO)[C@@H](O)[C@H](O)[C@@H]2O)cc1 (some centres not stated) | Non-toxic | Ratio [2]: 0.25; solubility [4]: soluble |
| 875 | COc1ccc2ccc(OCC(CO[C@H]3O[C@H](CO)[C@@H](O)[C@H](O)[C@@H]3O)Oc3ccc4ccc(OC)cc4c3)cc2c1 (some centres not stated) | Non-toxic | – |
| 212 | COC(=O)c1ccc2ccc(OCC(COc3ccc4ccc(OC)cc4c3)O[C@H]3O[C@H](CO)[C@@H](O)[C@H](O)[C@@H]3O)cc2c1 (some centres not stated) | Non-toxic | Ratio [2]: 0.28; solubility [4]: soluble |
| 804 | O=[N+]([O-])c1ccc(OCC(COc2ccc([N+](=O)[O-])cc2)O[C@H]2O[C@H](CO)[C@@H](O)[C@H](O)[C@@H]2O)cc1 | Non-toxic | – |
| 346 | O=C(O)c1ccc(OCC(COc2cccc3ccccc23)O[C@H]2O[C@H](CO)[C@@H](O)[C@H](O)[C@@H]2O)cc1 (some centres not stated) | Non-toxic | Ratio [2]: 0.17; solubility [4]: soluble |
| 763 | O=C(NCC(CNC(=O)c1ccc2ccccc2c1)O[C@H]1O[C@H](CO)[C@@H](O)[C@H](O)[C@@H]1O)c1ccc2ccccc2c1 | – | – |
